Assay results published in article PMC9315884, “New Membrane Active Antibacterial and Antiviral Amphiphiles Derived from Heterocyclic Backbone of Pyridinium-4-Aldoxime” (Pharmaceuticals, 2022).
Several values for one entry are separate records, joined by “and”; a condition that tells them apart may be missing. Equal values may be shown once. Read-outs that look alike come from different tables or passages of the source.

Key:
[1] = system: Staphylococcus aureus ATCC25923; assay: Broth microdilution assay (MIC); assay type: cell-based; conditions: for MIC: Staphylococcus aureus
Method: (§1) The antibacterial activity of all compounds was evaluated by determining the minimum inhibitory concentration (MIC), which is defined as the lowest concentration of the compound at which no visible bacterial growth is detected. The compounds were tested against representatives of Gram-positive and Gram-negative strains, including the ESKAPE bacterium Staphylococcus aureus ATCC25923 and the clinical isolate of methicillin-resistant S. aureus (MRSA), which are known for their pathogenicity.
(§2) All microbial strains were maintained at ™80 °C for long-term storage and subcultured on Mueller-Hinton (MH) agar (Biolife, Italy) prior to broth microdilution experiments. The MH plates were stored at +4 °C for no longer than one month.
(§3) Antibacterial activity was evaluated using the Broth Microdilution Assay according to the Clinical and Laboratory Standard Institute’s Methods for Dilution Antimicrobial Susceptibility Test for Bacteria That Grow Aerobically; Approved Standard-Tenth Edition.
(§4) The stock solution of QAS (10 mg/mL) was prepared in 4% DMSO. Then, 100 µL of the tested QAS was added to the first well of the microtiter plate. Twofold serial dilutions in Muller-Hinton broth were performed over the entire plate at a concentration range of 5 mg/mL to 5 µg/mL. […] The minimum inhibitory concentration (MIC) was determined as the lowest concentration at which no visually detectable bacterial growth occurred in the wells.

[2] = system: Listeria monocytogenes ATCC7644; assay: Broth microdilution assay (MIC); assay type: cell-based
Method: as §1, §2, §3, §4

[3] = system: Enterococcus faecalis ATCC29212; assay: Broth microdilution assay (MIC); assay type: cell-based
Method: as §1, §2, §3, §4

[4] = system: Escherichia coli ATCC25922; assay: Broth microdilution assay (MIC); assay type: cell-based; conditions: ATCC25922, 18 h
Method: as §1, §2, §3, §4

[5] = system: Pseudomonas aeruginosa ATCC27853; assay: Broth microdilution assay (MIC); assay type: cell-based
Method: as §1, §2, §3, §4

[6] = system: Bacillus cereus ATCC14579; assay: Broth microdilution assay (MIC); assay type: cell-based
Method: as §1, §2, §3, §4

[7] = system: methicillin-resistant Staphylococcus aureus clinical strain MRSA; assay: Broth microdilution assay (MIC); assay type: cell-based
Method: as §1
(§5) The collection included five Gram-positive strains, including Staphylococcus aureus (ATCC 25923 and a methicillin-resistant Staphylococcus aureus clinical strain MRSA), Bacillus cereus ATCC 14579, Enterococcus faecalis ATCC 29212, and Listeria monocytogenes ATCC 7644; and three Gram-negative strains: Escherichia coli ATCC 25922, Pseudomonas aeruginosa ATCC 27853 and the food isolate Salmonella enterica. All microbial strains were maintained at ™80 °C for long-term storage and subcultured on Mueller-Hinton (MH) agar (Biolife, Italy) prior to broth microdilution experiments. The MH plates were stored at +4 °C for no longer than one month.
as §3
(§6) The stock solution of QAS (10 mg/mL) was prepared in 4% DMSO. Then, 100 µL of the tested QAS was added to the first well of the microtiter plate. Twofold serial dilutions in Muller-Hinton broth were performed over the entire plate at a concentration range of 5 mg/mL to 5 µg/mL. To each well, 50 µL of mid-exponentially grown inoculum containing 10^5 CFU/mL in Mueller-Hinton broth was added and incubated at 37 °C for 18 hours. The minimum inhibitory concentration (MIC) was determined as the lowest concentration at which no visually detectable bacterial growth occurred in the wells.

[8] = system: Salmonella enterica food isolate; assay: Broth microdilution assay (MIC); assay type: cell-based; conditions: 18 h, S. enterica food isolate
Method: as §1, §5, §3, §6

[9] = system: HaCaT cells; assay: Cytotoxicity (MTS assay); conditions: 48 h
Method: (§7) Keratinocytes are the primary cell type found in the outermost layer of the skin. Therefore, HaCaT cells were used as a model for human skin, and RPE1 are retinal pigment epithelial cells, thus a model for epithelial cell type.
(§8) Cells were grown in DMEM media in a humidified environment with 5% CO2 and 37 °C. To determine cytotoxicity, a twofold serial dilution of a tested compound starting at 5 mg/mL was prepared in a 96-well plate. Five thousand cells were pipetted into each well, and the cells were grown for an additional 48 h. Then, the reagent MTS (20 μL) was added to the cells according to the manufacturer’s instructions (CellTiter 96® Aqueous One Solution Cell Proliferation Assay, Promega). After 3 h of incubation, the absorbance was measured at 490 nm. IC50 values were determined by plotting compound concentration against absorbance using GraFit6 software.

[10] = system: RPE1 cells; assay: Cytotoxicity (MTS assay); conditions: 48 h
Method: as §7, §8

[11] = system: Tobacco mosaic virus (TMV); assay: Antiphytoviral activity assay (local lesions on host plant leaves); assay type: in vivo, Tobacco mosaic virus on Datura stramonium; conditions: Datura stramonium leaves
Method: Leaves of Nicotiana tabacum L. cv. Samsun plants systemically infected with Tobacco mosaic virus (TMV) were ground in 0.06 mol/L phosphate buffer, pH 7.0 (1:1, w/v) to prepare virus inocula. […] Leaves of the local host Datura stramonium L. were dusted with silicon carbide (Sigma-Aldrich, St. Louis, MO, USA) before virus inoculation, and the inoculum was diluted with inoculation buffer to obtain 5–20 lesions per inoculated leaf. Experiments were performed when the experimental plants reached the 4–6 leaf stage.
The tested QAS (10 mg/mL) were dissolved in 4% DMSO and added to the virus inocula at a final concentration of 100 µg/mL. DMSO was added to the control virus inocula at the same concentration. The control and treated plants were then rubbed with the prepared inocula and the antiviral activity of the tested compounds was evaluated by the percentage inhibition of the number of local lesions on the leaves of the treated and control plants as described in [40]. The obtained data were analyzed in Excel (Microsoft Office) and significant differences were determined by t-test.

[12] = system: Escherichia coli DH5α cells; assay: AFM, bright-field and SYTO9/PI fluorescence microscopy of treated cells; assay type: cell-based; conditions: E. coli DH5α
Method: Optical and atomic force microscopy of the immobilized untreated and treated cells was performed to visualize the effect of Py-C12 on the bacterial membrane. For these experiments we used Escherichia coli DH5α cells because these cells allowed solid immobilization with persevered cell viability.
After making sure that the cells were properly immobilized and proliferating (a few new generations of cells were observed via optical microscopy), we started the treatment. To accelerate the process of time-dependent membrane damage, the cells were treated with the 4xMIC of Py-C12 for three hours after which the sample was rinsed with the fresh growth medium.
To estimate the percentage of cells whose membrane had been permeabilized by the treatment, the same group of cells was stained simultaneously with two fluorescent nucleic dyes, SYTO9 and propidium iodide (PI). […] When applied together, PI tends to displace SYTO9 from nucleic acid and the cells fluorescence in red. […]
AFM measurements of immobilized cells, both untreated and treated, were performed using the Nano-wizard IV system (JPK/Bruker, Berlin, Germany) operating in quantitative imaging (QI) mode with SNL-B probes (Bruker, Billerica, MA, USA). The AFM system was integrated with an IX73 inverted fluorescence optical microscope (Olympus, Tokyo, Japan). […]

[13] = system: Escherichia coli DH5α; assay: MIC determination before AFM; assay type: cell-based
[14] = compound 100 µg/mL inoculated simultaneously with TMV

## CCCCCCCCCCCCCC[n+]1ccc(C=NO)cc1 [Py-C14]
[1]; ATCC25923, 18 h
  MIC: 80 µg/mL
[2]; ATCC7644, 18 h
  MIC: 310 µg/mL and 780 µM
[3]; ATCC29212, 18 h
  MIC: 310 µg/mL and 780 µM
[4]
  MIC: 630 µg/mL and 1580 µM
[5]; ATCC27853, 18 h
  MIC: 2500 µg/mL and 6260 µM
[6]; ATCC14579, 18 h
  MIC: 1250 µg/mL
[7]; MRSA, 18 h
  MIC: 160 µg/mL
[8]
  MIC: 2500 µg/mL and 6260 µM
[9]
  Cytotoxicity in words: moderately toxic
[10]
  Cytotoxicity in words: moderately toxic
[11]; 100 µg/mL
  fold higher LLN than the control BAB: 5 fold
[11]; [14]
  Number of local lesions (LLN ± SD): 1.0±0.4

## ON=Cc1ccncc1 [Py-4-ox, pyridine-4-aldoxime, reference compound]
[1]; S. aureus ATCC25923, 18 h, 37 °C, read-out: MIC
  MIC: > 5000 µg/mL
[2]; 18 h, L. monocytogenes ATCC7644, read-out: MIC
  MIC: > 5000 µg/mL and > 40900 µM
[3]; 18 h, E. faecalis ATCC29212, read-out: MIC
  MIC: 5000 µg/mL and 40900 µM
[4]; E. coli ATCC25922, read-out: MIC
  MIC: > 5000 µg/mL and > 40900 µM
[5]; 18 h, P. aeruginosa ATCC27853, read-out: MIC
  MIC: > 5000 µg/mL and > 40900 µM
[6]; 18 h, B. cereus ATCC14579, read-out: MIC
  MIC: > 5000 µg/mL
[7]; 18 h, S. aureus clinical/MRSA, read-out: MIC
  MIC: > 5000 µg/mL
[8]
  MIC: 5000 µg/mL and 40900 µM
[9]
  Cytotoxicity in words: moderately toxic
[10]
  Cytotoxicity in words: moderately toxic

## CCCCCCCCCCCC[n+]1ccc(C=NO)cc1 [Py-C12]
[1]; ATCC25923, 18 h
  MIC: 80 µg/mL
[2]; ATCC7644, 18 h
  MIC: 630 µg/mL and 1700 µM
[3]; ATCC29212, 18 h
  MIC: 630 µg/mL and 1700 µM
[4]
  MIC: 630 µg/mL and 1700 µM
[5]; ATCC27853, 18 h
  MIC: 2500 µg/mL and 6730 µM
[6]; ATCC14579, 18 h
  MIC: 1250 µg/mL
[7]; MRSA, 18 h
  MIC: 310 µg/mL
[8]
  MIC: 630 µg/mL and 1700 µM
[12]; 4xMIC, 3 h
  effect on number of bacterial cells (bright-field): bacteriostatic effect
[12]; 4 × MIC, 3 h treatment, SYTO9/PI staining, 344 cells
  percentage of permeabilized cells: 87%
[13]
  MIC against E. coli DH5α in words: equivalent to that of E. coli ATTC 25922
[11]; [14]
  Number of local lesions (LLN ± SD): 3.0±1.1
[11]; compound 100 µg/mL inoculated simultaneously with TMV, vs control plants
  Percentage of inhibition of local lesions: 78.1%

## CCCCCCCCCCCCCCCC[n+]1ccc(C=NO)cc1 [Py-C16]
[1]; S. aureus ATCC25923
  fold higher MIC than CPC: 28 fold
  fold higher MIC than cefotaxime: 10 fold
[1]; ATCC25923, 18 h
  MIC: 40 µg/mL
[2]; ATCC7644, 18 h
  MIC: 1250 µg/mL and 2920 µM
[3]; ATCC29212, 18 h
  MIC: 2500 µg/mL and 5850 µM
[4]
  MIC: 160 µg/mL and 370 µM
[5]; ATCC27853, 18 h
  MIC: 2500 µg/mL and 5850 µM
[6]; ATCC14579, 18 h
  MIC: 160 µg/mL
[7]; MRSA
  MIC: 160 µg/mL
[7]; MRSA, 18 h
  MIC: 160 µg/mL
[8]
  MIC: 5000 µg/mL and 11700 µM
[9]
  Cytotoxicity in words: moderately toxic
[10]
  Cytotoxicity in words: moderately toxic
